According to EP4603105A1, “PHARMACEUTICAL COMPOSITION CONTAINING CYCLIC COMPOUND HAVING SELECTIVE KRAS INHIBITORY EFFECT AGAINST HRAS AND NRAS” (CHUGAI SEIYAKU KABUSHIKI KAISHA, priority 2022, dated 2024):
*1 amine or outer side, *2 acyl side, *3 side chain or, on linkers, in order; H or OH if unused. Where a SMILES comes first, the peptide text is derived from it. Bridges are numbered along the chain shown (N, C = ends). [ ]: non-standard residue; d: D form. The star is where a group is joined. hPhe(3-Cl-4-CF3) = N[C@@H](CCc1ccc(C(F)(F)F)c(Cl)c1)C(=O)O; NPrPhe(4-CF3) = CCCN[C@@H](Cc1ccc(C(F)(F)F)cc1)C(=O)O; NMeAbu(4,4,4-F3) = CN[C@@H](CC(F)(F)F)C(=O)O; X21 = CCCN([C@H](C(=O)[*:2])C1CCCC1)[*:1]; NMeGly(cPent) = CN[C@H](C(=O)O)C1CCCC1; Pro(4,4-F2) = O=C(O)[C@@H]1CC(F)(F)CN1; NMeD = CN[C@@H](CC(=O)O)C(=O)O; NMeL = CN[C@@H](CC(C)C)C(=O)O; Morpholide = C1CN(*)CCO1; NMeA = CN[C@@H](C)C(=O)O; Ac5c = NC1(C(=O)O)CCCC1; Aze = O=C(O)[C@@H]1CCN1; NPrGly = CCCNCC(=O)O; NEtG = CCNCC(=O)O; Sar = CNCC(=O)O

Legend:
HRAS wild-type protein = HRAS wild-type protein (Homo sapiens, UniProt P01112); assay: Binding to HRAS by surface plasmon resonance (SPR), KD and KD ratio to KRAS
Chain of HRAS wild-type protein (P01112 whole entry): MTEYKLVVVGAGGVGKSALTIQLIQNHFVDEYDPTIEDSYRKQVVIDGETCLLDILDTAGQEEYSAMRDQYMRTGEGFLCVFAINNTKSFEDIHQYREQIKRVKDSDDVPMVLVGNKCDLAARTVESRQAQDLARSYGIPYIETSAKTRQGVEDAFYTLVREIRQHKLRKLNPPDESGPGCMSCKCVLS
Method in brief: (§1)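 Compound binding is evaluated by SPR single-cycle kinetics, with concentrations added intermittently from low to high for 75 s each. Target surfaces carry GDP-loaded biotinylated Avi-RAS at about 100–300 RU, regenerated after each cycle; temperature 30°C. A 1:1 binding model gives KD.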

[1] = system: human lung cancer strain NCI-H441; assay type: cell-based
Method in brief: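 Proliferation was scored by […] measured after the reagent was added to cultures kept at 37°C in 5% carbon dioxide.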

[2] = biological target: GDP-bound NRAS wild-type protein (Homo sapiens, UniProt P01111); assay: Binding to NRAS by surface plasmon resonance (SPR), KD and KD ratio to KRAS
Chain of GDP-bound NRAS wild-type protein (P01111 whole entry): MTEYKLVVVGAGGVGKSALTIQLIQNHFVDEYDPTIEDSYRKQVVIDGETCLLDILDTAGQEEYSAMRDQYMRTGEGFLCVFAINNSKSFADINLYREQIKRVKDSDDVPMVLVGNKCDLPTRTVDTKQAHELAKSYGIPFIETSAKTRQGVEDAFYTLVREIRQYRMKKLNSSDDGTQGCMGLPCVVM
Method in brief: as §1

[3] = ratio of KD for HRAS wild-type protein to KD for KRAS
[4] = ratio of KD for GDP-bound NRAS wild-type protein to KD for KRAS
[5] = ratio of the KD value with respect to HRAS wild-type protein to the KD value with respect to KRAS
[6] = ratio of the KD value with respect to GDP-bound NRAS wild-type protein to the KD value with respect to KRAS

SMILES | IC50 [1] | HRAS /KRAS (HRAS wild-type protein; [3]) | NRAS /KRAS [2, 4] | HRAS /KRAS (HRAS wild-type protein; [5]) | NRAS /KRAS [2, 6] | HRAS /KRAS (HRAS wild-type protein; ratio of KD with respect to HRAS wild-type protein to KD with respect to KRAS) | NRAS /KRAS ([2]; ratio of KD with respect to GDP-bound NRAS wild-type protein to KD with respect to KRAS)
CCC[C@H]1C(=O)N[C@@H]([C@@H](C)CC)C(=O)N(C)CC(=O)N(C)[C@H]2C/C=C\CCN(C2=O)[C@@H](Cc2ccc(C)cc2)C(=O)N(C)CC(=O)N[C@@H](CCc2ccc(CC)c(Cl)c2)C(=O)N2C[C@H](OCC)C[C@H]2C(=O)NC2(CC(C)(C)C2)C(=O)N(C)[C@@H](C2CCCC2)C(=O)N(C)[C@H](C(=O)N(C)C)CC(=O)N1C [PP2778] | 22.3 nM | A (a compound having 10 or more and less than 20 is denoted as A) | A (a compound having 10 or more and less than 20 is denoted as A) |  |  |  | 
CCO[C@@H]1C[C@H]2C(=O)NC3(CC(C)(C)C3)C(=O)N(C)[C@@H](C(CC)CC)C(=O)N(C)[C@H](C(=O)N(C)C)CC(=O)N(C)[C@@H](COC)C(=O)N[C@@H]([C@@H](C)CC)C(=O)N(C)CC(=O)N(C)[C@H]3C/C=C\CCN(C3=O)[C@@H](Cc3ccc(C(F)(F)F)cc3)C(=O)N(C)CC(=O)N[C@@H](CCc3ccc(C(F)(F)F)c(Cl)c3)C(=O)N2C1 [PP2126] | 13.4 nM |  |  | B (a compound having 3 or more and less than 10 is denoted as B) | A (a compound having 10 or more and less than 20 is denoted as A) |  | 
CCC[C@H]1C(=O)N[C@@H]([C@@H](C)CC)C(=O)N(C2CC2)CC(=O)N(C)[C@H]2C/C=C\CCN(C2=O)[C@@H](Cc2ccc(C(F)(F)F)cc2)C(=O)N(C)CC(=O)N[C@@H](CCc2ccc(C(F)(F)F)c(OC)c2)C(=O)N2C[C@H](OCC)C[C@H]2C(=O)NC2(CC(C)(C)C2)C(=O)N(C)[C@@H](C2CCCC2)C(=O)N(C)[C@H](C(=O)N(C)C)CC(=O)N1C [PP2105] | 10.4 nM |  |  | A (a compound having 10 or more and less than 20 is denoted as A) | A (a compound having 10 or more and less than 20 is denoted as A) |  | 
CC[C@H](C)[C@@H]1NC(=O)[C@@H]2CCC/C=C/c3ccc(cc3)C[C@@H](C(=O)N(C)CC(=O)N[C@@H](CCc3ccc(Cl)c(Cl)c3)C(=O)N3CCC[C@H]3C(=O)NC3(CC(C)(C)C3)C(=O)N(C)[C@@H](C3CCCC3)C(=O)N(C)[C@H](C(=O)N3CCCC3)CC(=O)N2C)N2CC/C=C\C[C@@H](C2=O)N(C)C(=O)CN(C)C1=O [PP2602] | 12.8 nM | A (a compound having 10 or more and less than 20 is denoted as A) | A (a compound having 10 or more and less than 20 is denoted as A) |  |  |  | 
CCO[C@@H]1C[C@H]2C(=O)NC3(CCCC3)C(=O)N(C)[C@@H](C3CCCC3)C(=O)N(C)[C@H](C(=O)N(C)C)CC(=O)N(C)[C@@H](C)C(=O)N[C@@H]([C@@H](C)CC)C(=O)N(C)CC(=O)N(C)[C@H]3CCCCCN(C3=O)[C@@H](Cc3ccc(C(F)(F)F)cc3)C(=O)N(C)CC(=O)N[C@@H](CCc3cc(F)c(C(F)(F)F)c(F)c3)C(=O)N2C1 [PP0475] | 18.7 nM |  |  | B (a compound having 3 or more and less than 10 is denoted as B) | B (a compound having 3 or more and less than 10 is denoted as B) |  | 
CCO[C@@H]1C[C@H]2C(=O)NC3(CCC3)C(=O)N(C)[C@@H](CC(C)C)C(=O)N(C)[C@H](C(=O)N(C)C)CC(=O)N(C)[C@@H](CC)C(=O)N[C@@H]([C@@H](C)CC)C(=O)N(C)CC(=O)N(C)[C@H]3C/C=C\CCN(C3=O)[C@@H](Cc3ccc(C(F)(F)F)cc3)C(=O)N(C)CC(=O)N[C@@H](CCc3cc(F)c(C(F)(F)F)c(F)c3)C(=O)N2C1 [PP1089] | 57.3 nM | A (a compound having 10 or more and less than 20 is denoted as A) | AA (a compound having 20 or more is denoted as AA) |  |  |  | 
CCO[C@@H]1C[C@H]2C(=O)NC3(CCC3)C(=O)N(C)[C@@H](C3CCCC3)C(=O)N(C)[C@H](C(=O)N(C)CCOC)CC(=O)N(C)[C@@H](CC(C)C)C(=O)N[C@@H]([C@@H](C)CC)C(=O)N(C)CC(=O)N(C)[C@H]3C/C=C\CCN(C3=O)[C@@H](Cc3ccc(C(F)(F)F)cc3)C(=O)N(C)CC(=O)N[C@@H](CCc3cc(F)c(C(F)(F)F)c(F)c3)C(=O)N2C1 [PP1317] | 7.6 nM |  |  |  |  | B (a compound having 3 or more and less than 10 is denoted as B) | A (a compound having 10 or more and less than 20 is denoted as A)

Second part, led by results:

IC50 [1] | SMILES | HRAS /KRAS (HRAS wild-type protein; [3]) | NRAS /KRAS [2, 4] | HRAS /KRAS (HRAS wild-type protein; [5]) | NRAS /KRAS [2, 6] | HRAS /KRAS (HRAS wild-type protein; ratio of KD with respect to HRAS wild-type protein to KD with respect to KRAS) | NRAS /KRAS ([2]; ratio of KD with respect to GDP-bound NRAS wild-type protein to KD with respect to KRAS)
84.4 nM | CCCN1C(=O)CN(C)C(=O)CN(C)C(=O)[C@H]([C@@H](C)CC)NC(=O)[C@H](CC(C)C)N(C)C(=O)C[C@@H](C(=O)N2CCOCC2)N(C)C(=O)[C@H](C2CCCC2)N(C)C(=O)C2(CCCC2)NC(=O)[C@@H]2CCCN2C(=O)[C@H](CCc2ccc(C(F)(F)F)c(Cl)c2)NC(=O)CN(C)C(=O)[C@@H]1C1CCCC1 [PP0061] ([NMeL]I[Sar][Sar][X21][Sar][hPhe(3-Cl-4-CF3)]P[Ac5c][NMeGly(cPent)][NMeD]-Morpholide; lactam N-11) | C (A compound having a KD ratio of 0.1 or more and less than 3 is denoted as C) | B (a compound having 3 or more and less than 10 is denoted as B) |  |  |  | 
38.1 nM | CCO[C@@H]1C[C@H]2C(=O)NC3(CCCC3)C(=O)N(C)[C@@H](C3CCCC3)C(=O)N(C)[C@H](C)CC(=O)N(C)[C@@H](CC(C)C)C(=O)N[C@@H]([C@@H](C)CC)C(=O)N(C)CC(=O)N(C)[C@H]3C/C=C\CCN(C3=O)[C@@H](Cc3ccc(C(F)(F)F)cc3)C(=O)N(C)CC(=O)N[C@@H](CCc3cc(F)c(C(F)(F)F)c(F)c3)C(=O)N2C1 [PP1096] | B (a compound having 3 or more and less than 10 is denoted as B) | B (a compound having 3 or more and less than 10 is denoted as B) |  |  |  | 
14.3 nM | CCCN1CC(=O)NC2(CCCC2)C(=O)N(C)[C@@H](C2CCCC2)C(=O)N(C)[C@H](C(=O)N2CCOCC2)CC(=O)N(C)[C@@H](CC(C)C)C(=O)N[C@@H]([C@@H](C)CC)C(=O)N(C)[C@@H](C)C(=O)N2CC[C@H]2C(=O)N(CCC)[C@@H](Cc2ccc(C(F)(F)F)cc2)C(=O)N(C)CC(=O)N[C@@H](CCc2ccc(C(F)(F)F)c(Cl)c2)C1=O [PP0288] ([NMeL]I[NMeA][Aze][NPrPhe(4-CF3)][Sar][hPhe(3-Cl-4-CF3)][NPrGly][Ac5c][NMeGly(cPent)][NMeD]-Morpholide; lactam N-11) | B (a compound having 3 or more and less than 10 is denoted as B) | C (A compound having a KD ratio of 0.1 or more and less than 3 is denoted as C) |  |  |  | 
41.6 nM | CCCN1C(=O)CN(C)C(=O)CN(CC)C(=O)[C@H]([C@@H](C)CC)NC(=O)[C@H](CC(C)C)N(C)C(=O)C[C@@H](C(=O)N2CCOCC2)NC(=O)[C@H](C2CCCC2)N(C)C(=O)C2(CCCC2)NC(=O)[C@@H]2CC(F)(F)CN2C(=O)[C@H](CCc2ccc(C(F)(F)F)c(Cl)c2)NC(=O)CN(C)C(=O)[C@@H]1Cc1ccc(C(F)(F)F)cc1 [PP0333] ([NMeL]I[NEtG][Sar][NPrPhe(4-CF3)][Sar][hPhe(3-Cl-4-CF3)][Pro(4,4-F2)][Ac5c][NMeGly(cPent)]D-Morpholide; lactam N-11) | C (A compound having a KD ratio of 0.1 or more and less than 3 is denoted as C) | B (a compound having 3 or more and less than 10 is denoted as B) |  |  |  | 
3.9 nM | CCCN1C(=O)[C@@H]2CCN2C(=O)[C@H](C)N(C)C(=O)[C@H]([C@@H](C)CC)NC(=O)[C@H](CC(F)(F)F)N(C)C(=O)C[C@@H](C(=O)N2CCOCC2)N(C)C(=O)[C@H](C2CCCC2)N(C)C(=O)C2(CCCC2)NC(=O)[C@@H]2CCCN2C(=O)[C@H](CCc2ccc(C(F)(F)F)c(Cl)c2)NC(=O)CN(C)C(=O)[C@@H]1Cc1ccc(C(F)(F)F)cc1 [PP0191] ([NMeAbu(4,4,4-F3)]I[NMeA][Aze][NPrPhe(4-CF3)][Sar][hPhe(3-Cl-4-CF3)]P[Ac5c][NMeGly(cPent)][NMeD]-Morpholide; lactam N-11) | B (a compound having 3 or more and less than 10 is denoted as B) | C (A compound having a KD ratio of 0.1 or more and less than 3 is denoted as C) |  |  |  | 
54.9 nM | CCCN1C(=O)[C@@H]2CCN2C(=O)[C@H](C)N(C)C(=O)[C@H]([C@@H](C)CC)NC(=O)[C@H](CC(C)C)N(C)C(=O)C[C@@H](C(=O)N2CCOCC2)NC(=O)[C@H](C2CCCC2)N(C)C(=O)C2(CCCC2)NC(=O)[C@@H]2CC(F)(F)CN2C(=O)[C@H](CCc2ccc(C(F)(F)F)c(Cl)c2)NC(=O)CN(C)C(=O)[C@@H]1Cc1ccc(C(F)(F)F)cc1 [PP0345] ([NMeL]I[NMeA][Aze][NPrPhe(4-CF3)][Sar][hPhe(3-Cl-4-CF3)][Pro(4,4-F2)][Ac5c][NMeGly(cPent)]D-Morpholide; lactam N-11) | B (a compound having 3 or more and less than 10 is denoted as B) | C (A compound having a KD ratio of 0.1 or more and less than 3 is denoted as C) |  |  |  | 
705 nM | CC[C@H](C)[C@@H]1NC(=O)[C@H](CC(C)C)N(C)C(=O)C[C@@H](C(=O)N2CCOCC2)N(C)C(=O)[C@H](CC(F)(F)F)N(C)C(=O)C2(CCCC2)NC(=O)[C@@H]2CCCN2C(=O)[C@H](CCc2cc(F)c(C(F)(F)F)c(F)c2)NC(=O)CN(C)C(=O)[C@H](Cc2ccc(C(F)(F)F)cc2)N2CCCCC[C@@H](C2=O)N(C)C(=O)CN(C)C1=O [PP0506] |  |  | B (a compound having 3 or more and less than 10 is denoted as B) | B (a compound having 3 or more and less than 10 is denoted as B) |  | 
